Results taken from ChEMBL document CHEMBL1201862, “PubChem BioAssay data set” (2004).
The source made the active and inactive calls.

How the values were obtained:
[1] = target: Potassium voltage-gated channel subfamily KQT member 2 (Rattus norvegicus, UniProt O88943); test: blockers of KCNQ2 channel current – cell-based, automated electrophysiology, set II, rat KCNQ2, dose response (AID 588637); format: functional
[2] = target: Mitochondrial peptide methionine sulfoxide reductase (Bos taurus, UniProt P54149); test: Absorbance-based biochemical high throughput dose response assay for activators of Methionine sulfoxide reductase A (MsrA).; format: functional
Chain of Mitochondrial peptide methionine sulfoxide reductase (P54149 whole entry): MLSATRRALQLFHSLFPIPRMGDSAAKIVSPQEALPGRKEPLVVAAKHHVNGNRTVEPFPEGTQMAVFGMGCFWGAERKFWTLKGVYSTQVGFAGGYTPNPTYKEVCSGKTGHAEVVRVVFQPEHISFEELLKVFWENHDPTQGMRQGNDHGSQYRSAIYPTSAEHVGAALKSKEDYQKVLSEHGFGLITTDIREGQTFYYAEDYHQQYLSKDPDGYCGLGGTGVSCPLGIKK

[3] = target: Paired box protein Pax-8 (Homo sapiens, UniProt Q06710); test: PAX8 transcriptional activity inhibition in RMG-I – RMG-I cells, luciferase, cherry-pick, dose response (AID 687027); format: functional, cell-based;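 note: luciferase reporter driven by Pax8 target thyroperoxidase promoter measured by SteadyGlo luminescence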
Chain of Paired box protein Pax-8 (Q06710 whole entry): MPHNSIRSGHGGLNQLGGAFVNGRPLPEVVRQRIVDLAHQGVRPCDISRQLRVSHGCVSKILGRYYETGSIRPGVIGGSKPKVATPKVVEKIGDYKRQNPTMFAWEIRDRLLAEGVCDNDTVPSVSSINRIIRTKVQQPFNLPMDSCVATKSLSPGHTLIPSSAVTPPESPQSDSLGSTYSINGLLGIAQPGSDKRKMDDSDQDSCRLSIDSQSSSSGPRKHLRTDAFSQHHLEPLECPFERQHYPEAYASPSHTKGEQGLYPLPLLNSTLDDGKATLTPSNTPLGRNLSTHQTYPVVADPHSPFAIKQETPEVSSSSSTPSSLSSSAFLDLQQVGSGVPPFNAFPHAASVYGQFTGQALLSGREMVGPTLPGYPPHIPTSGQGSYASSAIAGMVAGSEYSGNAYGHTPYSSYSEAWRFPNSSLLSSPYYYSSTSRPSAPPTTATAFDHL

[4] = target: T1, Histone-lysine N-methyltransferase NSD2 (Homo sapiens, UniProt O96028); format: biochemical
T1 sequence (O96028 whole entry): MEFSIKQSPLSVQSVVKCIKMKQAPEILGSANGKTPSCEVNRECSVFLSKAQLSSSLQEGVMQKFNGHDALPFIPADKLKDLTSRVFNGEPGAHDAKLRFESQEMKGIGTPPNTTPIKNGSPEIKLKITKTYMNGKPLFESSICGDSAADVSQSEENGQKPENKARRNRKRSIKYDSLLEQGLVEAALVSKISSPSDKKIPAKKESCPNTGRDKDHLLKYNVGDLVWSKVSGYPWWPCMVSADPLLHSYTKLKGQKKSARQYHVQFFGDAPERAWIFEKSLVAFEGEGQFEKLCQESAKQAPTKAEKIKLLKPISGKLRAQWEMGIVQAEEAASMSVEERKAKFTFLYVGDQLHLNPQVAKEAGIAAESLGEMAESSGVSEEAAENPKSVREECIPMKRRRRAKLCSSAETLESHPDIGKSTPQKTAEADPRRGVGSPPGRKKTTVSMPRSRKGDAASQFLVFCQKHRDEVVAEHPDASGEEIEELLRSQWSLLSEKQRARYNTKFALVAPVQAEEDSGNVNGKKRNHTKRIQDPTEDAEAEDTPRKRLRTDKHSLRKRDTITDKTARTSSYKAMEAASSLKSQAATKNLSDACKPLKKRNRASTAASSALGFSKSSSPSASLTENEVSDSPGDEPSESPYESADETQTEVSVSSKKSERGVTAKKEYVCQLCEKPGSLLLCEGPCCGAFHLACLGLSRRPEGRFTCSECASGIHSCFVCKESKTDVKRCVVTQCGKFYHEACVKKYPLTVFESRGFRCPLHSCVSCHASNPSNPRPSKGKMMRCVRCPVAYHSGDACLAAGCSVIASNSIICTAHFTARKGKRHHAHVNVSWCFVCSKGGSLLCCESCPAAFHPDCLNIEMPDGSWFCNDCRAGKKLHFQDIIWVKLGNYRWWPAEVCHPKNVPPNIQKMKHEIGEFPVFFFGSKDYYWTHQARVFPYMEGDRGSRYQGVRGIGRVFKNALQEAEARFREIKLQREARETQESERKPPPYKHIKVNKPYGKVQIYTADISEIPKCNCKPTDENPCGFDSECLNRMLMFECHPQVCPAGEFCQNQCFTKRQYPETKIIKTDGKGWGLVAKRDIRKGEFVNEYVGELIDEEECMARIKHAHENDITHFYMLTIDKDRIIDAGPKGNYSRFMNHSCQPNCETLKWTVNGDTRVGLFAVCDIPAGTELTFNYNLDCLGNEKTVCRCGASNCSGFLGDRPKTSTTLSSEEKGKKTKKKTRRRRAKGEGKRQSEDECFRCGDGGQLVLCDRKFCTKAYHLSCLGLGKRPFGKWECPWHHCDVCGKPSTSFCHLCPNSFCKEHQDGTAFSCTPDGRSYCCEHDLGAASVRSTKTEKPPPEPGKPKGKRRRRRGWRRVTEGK

[5] = target: Tyrosyl-DNA phosphodiesterase 2 (Homo sapiens, UniProt O95551); test: potency against TDP2 phosphodiesterase activity – biochemical, epi absorbance, IC50, dose response (AID 743297)
Chain of Tyrosyl-DNA phosphodiesterase 2 (O95551 whole entry): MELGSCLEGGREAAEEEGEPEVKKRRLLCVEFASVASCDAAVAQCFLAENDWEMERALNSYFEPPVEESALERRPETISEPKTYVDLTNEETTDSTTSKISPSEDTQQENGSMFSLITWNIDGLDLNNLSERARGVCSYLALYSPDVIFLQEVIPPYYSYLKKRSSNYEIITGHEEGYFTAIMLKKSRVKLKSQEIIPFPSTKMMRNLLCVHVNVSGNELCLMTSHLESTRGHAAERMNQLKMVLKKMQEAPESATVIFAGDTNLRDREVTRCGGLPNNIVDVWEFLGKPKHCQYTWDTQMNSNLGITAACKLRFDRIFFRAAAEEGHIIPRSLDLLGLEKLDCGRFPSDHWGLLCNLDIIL

[6] = luciferase reporter signal suppression in cells – H4 neuroglioma cells, luminescence, dose response (AID 1990); format: functional, cell-based
[7] = Luminescence Cell-Based Dose Response HTS to Identify Inhibitors of 5'UTR Stem-Loop Driven Prion Protein mRNA Translation in H4 Neuroglioblastoma Cells. [Related pubchem assays: 1827 (Project Summary), 1813 (Primary HTS)]; format: functional
[8] = alpha-synuclein stem-loop luciferase translation blockers – H4 neuroglioma cells, luminescence, confirmation (AID 1988); format: functional, cell-based
[9] = target: Induced myeloid leukemia cell differentiation protein Mcl-1 (Homo sapiens, UniProt Q07820); format: functional
Chain of Induced myeloid leukemia cell differentiation protein Mcl-1 (Q07820 whole entry): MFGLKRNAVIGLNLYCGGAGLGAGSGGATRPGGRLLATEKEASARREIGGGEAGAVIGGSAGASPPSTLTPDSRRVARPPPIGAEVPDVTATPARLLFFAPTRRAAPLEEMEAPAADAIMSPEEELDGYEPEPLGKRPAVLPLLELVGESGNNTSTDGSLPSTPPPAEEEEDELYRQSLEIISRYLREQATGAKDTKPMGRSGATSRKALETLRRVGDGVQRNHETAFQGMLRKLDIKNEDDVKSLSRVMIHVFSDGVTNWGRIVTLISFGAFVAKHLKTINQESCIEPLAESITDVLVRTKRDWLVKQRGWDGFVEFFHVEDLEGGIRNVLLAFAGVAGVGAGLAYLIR

[10] = bead-based luminescence quenchers, dual-tagged ARNT – biochemical, AlphaScreen, cherry-pick, artefact control for ARNT-TACC3 interaction inhibitor project, dose response (AID 651705); format: functional;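 note: AlphaScreen bead proximity signal that flags compounds interfering with the detection technology; potency reflects signal decrease which marks the compound as an assay artifact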
[11] = target: T2, ATP-dependent translocase ABCB1 (Homo sapiens, UniProt P08183); test: inhibition of BCRP-mediated JC-1 efflux – Ig-MXP3 cells, flow cytometry, set 2, dose response (AID 504566); format: functional; settings: read-out: EC50_MICROM_;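 note: flow cytometry median green fluorescence of retained JC-1 dye; potency of efflux pump inhibition measured as rising substrate retention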
T2 sequence (P08183 whole entry): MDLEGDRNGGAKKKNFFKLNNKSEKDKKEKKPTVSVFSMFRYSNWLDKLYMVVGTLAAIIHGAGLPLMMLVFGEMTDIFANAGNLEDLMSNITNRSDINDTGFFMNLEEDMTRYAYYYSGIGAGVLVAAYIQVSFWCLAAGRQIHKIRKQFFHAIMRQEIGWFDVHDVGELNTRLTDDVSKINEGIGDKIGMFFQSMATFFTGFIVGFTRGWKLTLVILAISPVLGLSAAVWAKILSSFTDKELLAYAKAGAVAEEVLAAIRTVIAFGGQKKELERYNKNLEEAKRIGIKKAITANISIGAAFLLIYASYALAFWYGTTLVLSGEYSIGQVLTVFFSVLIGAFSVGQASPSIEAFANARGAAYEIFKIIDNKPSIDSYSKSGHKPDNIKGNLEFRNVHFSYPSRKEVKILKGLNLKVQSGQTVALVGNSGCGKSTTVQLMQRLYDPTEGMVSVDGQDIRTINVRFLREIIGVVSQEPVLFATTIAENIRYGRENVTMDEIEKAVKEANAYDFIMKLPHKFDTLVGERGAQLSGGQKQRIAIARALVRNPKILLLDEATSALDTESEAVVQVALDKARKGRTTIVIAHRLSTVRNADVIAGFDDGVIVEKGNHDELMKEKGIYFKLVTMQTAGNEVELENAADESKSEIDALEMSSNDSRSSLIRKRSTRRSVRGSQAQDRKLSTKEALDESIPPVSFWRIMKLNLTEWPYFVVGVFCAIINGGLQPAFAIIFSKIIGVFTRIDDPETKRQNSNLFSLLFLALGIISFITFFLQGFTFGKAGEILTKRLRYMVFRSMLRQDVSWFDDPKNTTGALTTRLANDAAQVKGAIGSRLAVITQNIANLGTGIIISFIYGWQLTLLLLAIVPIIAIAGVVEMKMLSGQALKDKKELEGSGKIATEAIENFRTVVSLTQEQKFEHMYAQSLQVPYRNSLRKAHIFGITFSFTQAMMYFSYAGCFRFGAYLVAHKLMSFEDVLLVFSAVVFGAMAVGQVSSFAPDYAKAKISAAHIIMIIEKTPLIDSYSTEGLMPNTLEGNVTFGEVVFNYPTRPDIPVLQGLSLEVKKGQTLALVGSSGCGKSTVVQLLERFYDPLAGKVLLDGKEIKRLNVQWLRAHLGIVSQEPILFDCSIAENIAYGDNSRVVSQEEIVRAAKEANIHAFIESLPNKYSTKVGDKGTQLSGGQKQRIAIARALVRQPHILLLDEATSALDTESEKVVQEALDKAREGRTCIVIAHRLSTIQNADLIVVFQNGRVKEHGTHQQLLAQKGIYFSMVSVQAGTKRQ

[12] = target: T2, ATP-dependent translocase ABCB1; test: P-gp JC-1 efflux blockade concentration-response – Jurkat-DNR cells, flow cytometry, set 2, dose response (AID 504569); format: functional; settings: read-out: EC50_MICROM_;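 note: potency of pump inhibitors that raise cellular JC-1 green fluorescence up to the nicardipine level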
[13] = target: T3, Low molecular weight phosphotyrosine protein phosphatase (Homo sapiens, UniProt P24666); format: functional; settings: read-out: IC50_Mean
T3 sequence (P24666 whole entry): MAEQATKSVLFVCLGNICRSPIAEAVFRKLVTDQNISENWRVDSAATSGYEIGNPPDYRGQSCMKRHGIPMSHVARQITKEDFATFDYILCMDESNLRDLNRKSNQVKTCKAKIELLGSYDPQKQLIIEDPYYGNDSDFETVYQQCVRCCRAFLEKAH

[14] = target: T3, Low molecular weight phosphotyrosine protein phosphatase; format: functional; settings: read-out: IC50_Mean; remark: listed apart in the source
[15] = target: T4, Tyrosine-protein phosphatase non-receptor type 22 (Homo sapiens, UniProt Q9Y2R2); test: PTPN22 enzyme inhibitors – biochemical, fluorescence, LYP catalytic domain, selectivity assay for LMPTP inhibitor project, dose response (AID 652006); format: functional; settings: read-out: IC50_Mean
T4 sequence (Q9Y2R2 whole entry): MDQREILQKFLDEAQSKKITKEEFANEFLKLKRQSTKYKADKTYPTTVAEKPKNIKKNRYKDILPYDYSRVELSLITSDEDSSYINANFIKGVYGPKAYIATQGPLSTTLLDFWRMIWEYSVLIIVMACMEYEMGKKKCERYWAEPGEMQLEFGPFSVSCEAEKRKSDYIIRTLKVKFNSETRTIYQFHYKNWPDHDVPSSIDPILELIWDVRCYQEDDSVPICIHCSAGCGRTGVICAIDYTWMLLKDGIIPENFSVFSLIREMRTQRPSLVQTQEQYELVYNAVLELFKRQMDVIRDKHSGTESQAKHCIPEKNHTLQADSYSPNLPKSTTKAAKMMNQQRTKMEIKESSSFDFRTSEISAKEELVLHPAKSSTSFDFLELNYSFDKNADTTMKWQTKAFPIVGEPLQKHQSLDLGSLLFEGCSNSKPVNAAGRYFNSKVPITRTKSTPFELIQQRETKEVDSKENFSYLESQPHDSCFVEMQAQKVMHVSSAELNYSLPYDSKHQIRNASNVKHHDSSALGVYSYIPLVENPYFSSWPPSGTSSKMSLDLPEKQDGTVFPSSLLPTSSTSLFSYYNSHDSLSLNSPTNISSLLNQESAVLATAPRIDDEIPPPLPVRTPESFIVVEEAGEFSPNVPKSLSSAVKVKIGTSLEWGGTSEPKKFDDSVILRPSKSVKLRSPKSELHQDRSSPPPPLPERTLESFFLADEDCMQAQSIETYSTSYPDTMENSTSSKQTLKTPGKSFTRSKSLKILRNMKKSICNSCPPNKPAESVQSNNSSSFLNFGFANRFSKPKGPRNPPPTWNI

[16] = target: Platelet-activating factor acetylhydrolase (Mus musculus, UniProt Q60963); test: Late stage assay provider results from the probe development effort to identify inhibitors of pPAFAH: fluorescence-based dose-response biochemical gel-based competitive Activity-Based Protein Profiling (ABPP) assay for SAR compounds.; format: functional
Chain of Platelet-activating factor acetylhydrolase (Q60963 whole entry, the tested form may be a part): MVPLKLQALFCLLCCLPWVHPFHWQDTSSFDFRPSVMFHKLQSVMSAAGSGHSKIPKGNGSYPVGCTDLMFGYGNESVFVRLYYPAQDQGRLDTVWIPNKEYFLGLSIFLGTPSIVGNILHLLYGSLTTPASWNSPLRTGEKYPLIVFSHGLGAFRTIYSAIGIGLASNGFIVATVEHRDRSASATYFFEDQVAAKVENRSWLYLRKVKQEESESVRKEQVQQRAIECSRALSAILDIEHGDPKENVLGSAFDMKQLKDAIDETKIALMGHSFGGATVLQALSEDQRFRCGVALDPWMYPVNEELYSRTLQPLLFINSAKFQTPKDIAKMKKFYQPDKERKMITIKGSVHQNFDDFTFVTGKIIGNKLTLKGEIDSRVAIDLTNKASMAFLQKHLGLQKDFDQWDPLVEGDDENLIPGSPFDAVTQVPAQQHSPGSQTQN

[17] = inhibition of ARNT PAS-B/TACC3 complex formation – biochemical, AlphaScreen, cherry-picked samples, confirmation (AID 651703); format: functional, Homo sapiens;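 note: His-tagged ARNT PAS-B domain paired with GST-TACC3 E629A dimer coactivator fragment; potency of inhibitors that break up the complex and lower AlphaScreen signal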

Chain of Potassium voltage-gated channel subfamily KQT member 2 (O88943 whole entry): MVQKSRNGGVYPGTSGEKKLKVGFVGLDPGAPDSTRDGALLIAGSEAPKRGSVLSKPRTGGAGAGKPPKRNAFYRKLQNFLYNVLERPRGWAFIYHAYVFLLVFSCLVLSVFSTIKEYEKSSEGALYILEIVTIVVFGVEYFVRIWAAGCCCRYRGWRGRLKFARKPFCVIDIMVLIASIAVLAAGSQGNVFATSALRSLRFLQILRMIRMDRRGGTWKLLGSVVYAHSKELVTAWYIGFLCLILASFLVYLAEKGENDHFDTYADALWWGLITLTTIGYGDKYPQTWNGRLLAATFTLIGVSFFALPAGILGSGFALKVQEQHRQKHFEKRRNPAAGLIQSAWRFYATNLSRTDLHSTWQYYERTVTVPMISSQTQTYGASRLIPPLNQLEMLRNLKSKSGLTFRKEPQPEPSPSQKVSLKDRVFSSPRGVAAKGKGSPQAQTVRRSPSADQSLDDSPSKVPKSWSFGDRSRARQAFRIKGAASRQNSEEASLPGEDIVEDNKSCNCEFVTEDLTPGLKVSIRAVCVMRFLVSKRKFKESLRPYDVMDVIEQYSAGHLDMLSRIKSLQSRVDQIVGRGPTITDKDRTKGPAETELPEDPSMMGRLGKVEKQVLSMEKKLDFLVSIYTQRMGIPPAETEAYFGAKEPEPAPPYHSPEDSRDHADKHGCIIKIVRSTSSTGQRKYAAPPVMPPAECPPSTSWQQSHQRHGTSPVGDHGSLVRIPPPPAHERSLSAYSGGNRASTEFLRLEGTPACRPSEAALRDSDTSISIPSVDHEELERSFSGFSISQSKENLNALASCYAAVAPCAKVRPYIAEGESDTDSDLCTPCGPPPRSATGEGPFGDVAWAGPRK

Structure (SMILES): O=C(COc1ccc(F)cc1)N(c1ccccn1)C1CCCCC1
- IC50 [1]: 1.49 µM (active)

Structure (SMILES): NC1=CC(=O)C(=O)c2cccnc21
- EC50 [2]: > 34.6 µM (inactive)
- AC50 [3]: 10.5 µM (active)
- AC50 [4]: 0.546 µM (active)
- IC50 [5]: 5.99 µM (active)

Structure (SMILES): COc1cc2c(cc1O)C[C@H]1NCCc3cc4c(c-2c31)OCO4
- EC50 [6]: 13.2 µM (active)
- EC50 [7]: 85.6 µM (active)
- EC50 [8]: > 120 µM (not active)
- IC50 [9]: 5.61 µM (active)
- AC50 [10]: 84.2 µM (active)

Structure (SMILES): O=C(c1ccoc1)N1CCN(c2cc(-c3cccnc3)nc3cc(-c4cccc(Cl)c4)nn23)CC1
- EC50 [11]: 0.26 µM (active)
- EC50 [12]: 0.97 µM (active)

Structure (SMILES): CC(=O)Nc1ccc(CNc2nc(NCc3cccs3)nc3ccsc23)cc1
- IC50 [13]: 15.5 µM (active)
- IC50 [14]: 13.6 µM (active)
- IC50 [15]: 49.5 µM (inactive)

Structure (SMILES): Cc1cc(N2CCN(C(=O)Oc3ccc(C(F)(F)F)cc3)CC2)c2ccccc2n1
- IC50 [16]: 0.041 µM (active)

Structure (SMILES): CN1CCN(/N=C/c2nc(-c3ccccc3Cl)n3ccccc23)CC1
- AC50 [17]: 75.6 µM (active)
